The values that follow come from patent US7553798B2, “Heterocyclic carboxamides with microbiocidal activity” (Syngenta Crop Protection, Inc., priority 2004, dated 2009).

Turning to `Cn1cc(C(=O)Nc2ccccc2-c2ccc(C#CC(C)(C)C)s2)c(C(F)(F)F)n1` [Compound 1ai.098, 1-methyl-3-trifluoromethyl-1H-pyrazole-4-carboxylic acid {2-[5-(3,3-dimethyl-but-1-ynyl)-thiophen-2-yl]-phenyl}-amide], the melting point lay within 122 to 125 °C.

Compound `Cn1cc(C(=O)Nc2ccccc2-n2cc(C#CC(C)(C)C)cn2)c(C(F)F)n1` [Compound 1ar.099, 3-difluoromethyl-1-methyl-1H-pyrazole-4-carboxylic acid {2-[4-(3,3-dimethyl-but-1-ynyl)-pyrazol-1-yl]-phenyl}-amide] returned a melting point of 145 to 148 °C.
